Measured values taken from US20200215153A1, “CANCER TREATMENT AND/OR PREVENTION THROUGH REGULATION OF UBIQUITINATION” (Academia Sinica, priority 2018, published 2020).

What was measured:
[1] = test system: BIKDD; test: BIKDD levels in TNBC cell lines treated with IRE1α inhibitor; format: cell-based; settings: TNBC cell lines Hs578T, MDA-MB157 and MDA-MB468
Procedure: (§1) Cell extraction was performed with RIPA lysis buffer containing 50 mM Tris (pH 8.0), 0.15 M NaCl, 1% NP40, 1% sodium deoxycholate, 0.1% SDS, 1 mM PMSF, 1 µg/ml aprotinin, and 1 µg/ml leupeptin. Western blot was performed with the standard protocol. For an efficient detection of BIK by Western blot, Tricine-SDS-PAGE was used. Western blot analyses of other proteins were performed with Glycine-SDS-PAGE. Immunoprecipitation was performed and analyzed as previously described. Briefly, cell lysates were incubated with primary antibody for overnight. The Pure Proteome Protein A/G Magnetic Beads (LSKMAGA/G10, EMD Millipore) were then added into cell lysates and incubated for 1.5 h. The beads were washed with RIPA lysis buffer and the bound proteins were analyzed by Western blot.

[2] = test system: TNBC cells (Hs578T, MDA-MB157, MDA-MB468); test: MTT assay for viability of TNBC cells transfected with BIKDD and treated with IRE1α inhibitor; format: cell-based; settings: 10 or 100 μM STF-083010, 48 h
Procedure: (§2) FIG. 7. […] (a, c) MTT assay for the viability of indicated TNBC cells transfected with […] CMV-BIKDD (a) or VISA-BIKDD (c) and treated with 10 or 100 μM STF-083010 for 48 h. CI values are indicated. (b) Western blot analysis of cleaved PARP in indicated TNBC cells transfected with CMV-BIKDD and treated with 100 μM STF-083010 for 36 h. […] Tumor volume were measured at indicated days and plotted. Data are mean±s.d., *P<0.05; ***P<0.001 by two-way ANOVA with Turkey's post test, n=5. Tumors were surgically removed at day 49 and their sizes are shown on the right. (e) Mice orthotopically implanted with Hs578T cells and treated with VISA-BIKDD lipid nanoparticle together with STF-083010 or DMSO starting at day 28 after tumor cell implantation (see Materials and Methods). Tumor volume were measured at indicated days and plotted. Data are mean±s.d., ***P<0.001 by two-way ANOVA with Turkey's post test, n=5. Tumors were surgically removed at day 66 and their sizes are shown on the right.
MDA-MB157 and MDA-MB 468 cells were seeded at a density of 5×10^3 cells and Hs578T cells were at 2×10^3 cells in 96-well plates. Cells were transfected with BIKDD. In the next day, cells were treated with IRE1α inhibitor or DMSO for 48 h and then with 0.4 mg/ml methylthiazolyldiphenyltetrazolium bromide (MTT) (Sigma) for 2 h. Cells were dissolved in DMSO, followed by absorbance measurement at 590 nm. The combination index (CI) was calculated using the equation: CI=CA/IC50A+CB/IC50B. CA and CB represent the concentrations of the two agents for combined treatment. IC50A and IC50B are the IC50 values for each single treatment, which were determined by treating cells with various dosages of each agent followed by MTT assay. (CI<1) indicates a synergistic effect, (CI>1) corresponds to an antagonistic effect, and (CI=1) represents an additive effect.

[3] = test system: cleaved PARP; test: Western blot analysis of cleaved PARP in TNBC cells; format: cell-based; settings: TNBC cells transfected with CMV-BIKDD, 100 μM STF-083010, 36 h; FIG. 7b
Procedure: as §2
(§3) Cell extraction was performed with RIPA lysis buffer containing 50 mM Tris (pH 8.0), 0.15 M NaCl, 1% NP40, 1% sodium deoxycholate, 0.1% SDS, 1 mM PMSF, 1 µg/ml aprotinin, and 1 µg/ml leupeptin. Western blot was performed with the standard protocol. […] Immunoprecipitation was performed and analyzed as previously described. […] The beads were washed with RIPA lysis buffer and the bound proteins were analyzed by Western blot.

[4] = test system: Hs578T orthotopic breast tumors; test: Orthotopic Hs578T tumor model, cells expressing BIKDD or control vector, treated with STF-083010; format: in vivo, nude mice
Procedure: (§4) All mice were maintained according to the guidelines of animal ethical regulations, and all animal studies were approved by the Experimental Animal Committee, Academia Sinica. […] Seven days later, DMSO or STF-083010 (40 mg/kg) was intraperitoneally administrated every 3 days. […] Twenty-eight days later, DMSO or STF-083010 (40 mg/kg) was intraperitoneally administrated every 3-4 days. […] For both models, tumors were measured every 3 or 4 days, and their volumes were calculated using the equation: mm^3=[…]×length(mm)×(width(mm))^2.

[5] = test system: Hs578T orthotopic breast tumors; test: BIKDD gene therapy model: orthotopic Hs578T tumors, intratumoral VISA-BIKDD plus STF-083010; format: in vivo, nude mice
Procedure: as §4

[6] = test system: ASB11 mRNA; test: RT-qPCR analysis of ASB11 mRNA level under ER stress; format: cell-based; settings: 293T, MDA-MB157 and MDA-MB468 cells; 16 h; FIG. 3a
Procedure: FIG. 3. ER stress induces ASB11 transcription through XBP1. (a, b) RT-qPCR analysis of ASB11 mRNA level in 293T cells (a) or 293T cells stably expressing control or XBP1 shRNAs (b) treated with tunicamycin or thapsigargin for 16 h. (c) RT-qPCR analysis of ASB11 mRNA expression in 293T cells transfected with control vector or XBP1s. (d) Schematic representation of the 5′-regulatory region of ASB11 gene, the luciferase reporters and the ChIP primers used in this study. (e, g) Luciferase reporter assay of 293T cells transfected with control or XBP1s expression construct together with the indicated reporter constructs. (f, k) qChIP assays in 293T cells (f) or 293T derivatives (k) treated with 10 μg/ml tunicamycin for 16 h using control IgG or XBP1s antibody for immunoprecipitation and indicated sets of primers for qPCR. […] P values are determined by t-test (a, b right panel, c, e) or 1-way ANOVA with Tukey's post test (b left panel, f, g, i, j, k). **P<0.01; ***P<0.001.
Total mRNA was extracted from cells using TRIZOL reagent (Invitrogen), and equal amounts of RNA were reverse transcribed to cDNA using the iScript™ cDNA Synthesis Kit (Bio-Rad). Quantitative real-time PCR was performed using the Power SYBR Green PCR Master kit (Applied Biosystems). […]

[7] = test system: ASB11; test: Western blot analysis of ASB11 protein expression under ER stress; format: cell-based; settings: multiple cell lines; 10 μg/ml tunicamycin or 200 nM thapsigargin, 16 h; FIG. 4a
Procedure: (§5) FIG. 4. ER stress stimulates BIK ubiquitination and degradation through ASB11 and p97. (a) Western blot analysis of BIK and ASB11 levels in 293T cells treated with 10 μg/ml tunicamycin or 200 nM of thapsigargin for 16 h. (b) Western blot analysis of BIK levels in 293T cells treated with 10 μg/ml tunicamycin for 12 h and then with 50 μg/ml cycloheximide for indicated time periods. The relative amounts of BIK are indicated on the bottom. (c, e) Analysis of endogenous (c) or exogenous (e) BIK ubiquitination in 293T cells (c) or 293T derivatives as in FIG. 2d (e) transfected with indicated constructs and treated with tunicamycin. (d) Western blot analysis of 293T derivatives as in FIG. 2d treated with 10 μg/ml tunicamycin for 16 h. (f) Western blot analysis of BIK levels in 293T derivatives co-treated with 10 μg/ml tunicamycin and MG132 for 16 h. (g) Western blot analysis of BIK expression in 293T cells co-treated with tunicamycin and 10 μM CB-5083 for 16 h. […]
as §3, with “leupeptin.” for “leupeptin. Western blot was performed with the standard protocol.”

[8] = test system: BIK; test: Western blot analysis of BIK levels in 293T cells; format: cell-based; settings: multiple cell lines; 10 μg/ml tunicamycin or 200 nM thapsigargin, 16 h; FIG. 4a
Procedure: FIG. 2. […] (d) Western blot analysis of BIK levels in indicated cells stably expressing control or ASB11 shRNAs.
as §1

[9] = test system: BIK; test: Analysis of endogenous BIK ubiquitination in 293T cells; format: cell-based; settings: FIG. 4c
Procedure: FIG. 4. ER stress stimulates BIK ubiquitination and degradation through ASB11 and p97. (a) Western blot analysis of BIK and ASB11 levels in 293T cells treated with 10 μg/ml tunicamycin or 200 nM of thapsigargin for 16 h. (b) Western blot analysis of BIK levels in 293T cells treated with 10 μg/ml tunicamycin for 12 h and then with 50 μg/ml cycloheximide for indicated time periods. The relative amounts of BIK are indicated on the bottom. (c, e) Analysis of endogenous (c) or exogenous (e) BIK ubiquitination in 293T cells (c) or 293T derivatives as in FIG. 2d (e) transfected with indicated constructs and treated with tunicamycin. (d) Western blot analysis of 293T derivatives as in FIG. 2d treated with 10 μg/ml tunicamycin for 16 h. (f) Western blot analysis of BIK levels in 293T derivatives co-treated with 10 μg/ml tunicamycin and MG132 for 16 h. (g) Western blot analysis of BIK expression in 293T cells co-treated with tunicamycin and 10 μM CB-5083 for 16 h. (h, i) Western blot analysis of BIK expression in 293T cells stably expressing indicated shRNAs and treated with 10 μg/ml tunicamycin for 16 h. The knockdown efficiency of each shRNA is shown on the right. (j) Immunoprecipitation analysis of p97 interaction with ubiquitinated BIK in 293T cells treated with 10 μg/ml tunicamycin for 16 h. […]

[10] = test system: BIK; test: Cycloheximide-chase analysis of BIK turnover in 293T cells; format: cell-based; settings: 10 μg/ml tunicamycin 12 h then 50 μg/ml cycloheximide, FIG. 4b
Procedure: FIG. 4. ER stress stimulates BIK ubiquitination and degradation through ASB11 and p97. (a) Western blot analysis of BIK and ASB11 levels in 293T cells treated with 10 μg/ml tunicamycin or 200 nM of thapsigargin for 16 h. (b) Western blot analysis of BIK levels in 293T cells treated with 10 μg/ml tunicamycin for 12 h and then with 50 μg/ml cycloheximide for indicated time periods. The relative amounts of BIK are indicated on the bottom. (c, e) Analysis of endogenous (c) or exogenous (e) BIK ubiquitination in 293T cells (c) or 293T derivatives as in FIG. 2d (e) transfected with indicated constructs and treated with tunicamycin. (d) Western blot analysis of 293T derivatives as in FIG. 2d treated with 10 μg/ml tunicamycin for 16 h. (f) Western blot analysis of BIK levels in 293T derivatives co-treated with 10 μg/ml tunicamycin and MG132 for 16 h. (g) Western blot analysis of BIK expression in 293T cells co-treated with tunicamycin and 10 μM CB-5083 for 16 h. (h, i) Western blot analysis of BIK expression in 293T cells stably expressing indicated shRNAs and treated with 10 μg/ml tunicamycin for 16 h. The knockdown efficiency of each shRNA is shown on the right. (j) Immunoprecipitation analysis of p97 interaction with ubiquitinated BIK in 293T cells treated with 10 μg/ml tunicamycin for 16 h.

[11] = test system: p97 / ubiquitinated BIK; test: Immunoprecipitation analysis of p97 interaction with ubiquitinated BIK; format: cell-based; settings: 293T cells, 10 μg/ml tunicamycin, 16 h
Procedure: as §5
as §3, with “leupeptin.” for “leupeptin. Western blot was performed with the standard protocol.”

[12] = test system: 293T cells; test: ELISA assay of cell apoptosis (Cell Death ELISA) in 293T cells; format: cell-based; settings: control 293T cells, early time point (12 h) after tunicamycin; FIG. 6e
Procedure: FIG. 6. Regulation of ASB11-mediated BIK ubiquitination influences on cell life-death decision under ER stress and DNA damage. (a, b) ELISA assay of cell apoptosis (a) and Western blot analysis of active caspase 3 and cleaved PARP (b) in HCT116 p53^+/+ cells stably expressing indicated ASB11 constructs and treated with 3 μg/ml doxorubicin for 24 h. (c, d) ELISA assay of cell apoptosis (c) and Western blot analysis of active caspase 3 and cleaved PARP (d) in HCT116 p53^+/+ cells transiently transfected with ASB11 and/or BIK and treated with 3 μg/ml doxorubicin for 24 h. (e, f) ELISA assay for cell apoptosis (e) and Western blot analysis of active caspase 3 and cleaved PARP (f) in 293T cells stably expressing indicated shRNAs and treated with […] tunicamycin for 12 h. The knockdown efficiencies of various shRNAs are shown on the bottom. (g) Western blot analysis of BIK level in 293T cells transiently transfected with indicated BIK constructs and treated with 10 μg/ml tunicamycin for 24 h. The equal expression of BIK and BIK(2KR) in untreated cells (by adjusting the amount of plasmid used for transfection) is shown. […]
Apoptosis was analyzed as previously described. […] Cells were harvested and DNA fragmentation was measured by Cell Death ELISA Kit (Roche).

Row | Molecule | BIKDD levels [1] | killing of TNBC cells in combination with BIKDD ([2]; CMV-BIKDD transfected Hs578T, MDA-MB157, MDA-MB468, FIG. 7a) | killing effect of co-administration with VISA-BIKDD ([2]; VISA-BIKDD transfected TNBC cells, FIG. 7c) | level of cleaved PARP, combinatory treatment [3] | tumor growth, combined treatment with BIKDD ([4]; BIKDD-expressing Hs578T cells plus STF-083010 40 mg/kg i.p. every 3 days, FIG. 7d) | body weights of mice ([4]; BIKDD-expressing cell model) | tumor growth, agent alone ([4]; BIKDD-expressing cells or STF-083010 40 mg/kg i.p. every 3 days, alone, FIG. 7d) | anti-tumor effect of combined administration compared to BIKDD alone ([5]; VISA-BIKDD 0.75 mg/kg intratumoral every 7 days plus STF-083010 40 mg/kg i.p. every 3-4 days, FIG. 7e) | body weights of mice ([5]; VISA-BIKDD gene therapy model) | expression of ASB11 mRNA [6] | ASB11 protein expression [7] | BIK protein level [8] | ubiquitination of endogenous BIK [9] | turnover of endogenous BIK [10] | interaction of p97 with ubiquitinated BIK [11] | apoptosis induction [12]
1 | O=S(=O)(N=Cc1c(O)ccc2ccccc12)c1cccs1 [STF-083010, N-[(2-Hydroxy-1-naphthalenyl)methylene]-2-thiophenesulfonamide] | elevated | synergized | synergistic | increased | greatly suppressed | not altered | modest reduction | significant enhancement | not altered |  |  |  |  |  |  | 
2 | tunicamycin |  |  |  |  |  |  |  |  |  | upregulated | elevated | reduced | increased | increased | increased | did not show sign of apoptosis induction
